The text below walks through data of patent US20080051418A1, “Arylalkanoic Acid Derivative” (priority 2004, published 2008).

In data set [1] the test system is KKA^y mice. Kind of data set: Plasma antiatherogenic index increasing action in mice. Format: in vivo. Conditions: Mus musculus, po, 96 h, 4 days, increase rate of (HDL cholesterol/total cholesterol)×100, non-administration group = 100%; for change in vivo at 0.005 %: 0.005% in powder diet. On the procedure: The test compound was mixed with a powder diet (CE-2, CLEA JAPAN, INC.) at a proportion of 0.005% (0.01% for the compound of Example 105) and freely given to KKA^y mice (9 to 12-week-old, 5 mice per group) which are obesity-insulin independent diabetes mellitus (type-2 diabetes) models, for 4 days. During this period, water was freely given. The blood was drawn from fundus and the components were measured using the plasma separated from the blood. The total cholesterol was quantified using L Type Wako cholesterol (Wako Pure Chemical Industries, Ltd.). In addition, an HDL cholesterol precipitation reagent (Wako Pure Chemical Industries, Ltd.) was added to a part of the plasma to allow precipitation of a non-HDL lipoprotein, and the cholesterol (HDL cholesterol) of the supernatant was measured. The plasma antiatherogenic index [(HDL cholesterol/total cholesterol)×100] was calculated from these cholesterol values.

The test system of data set [2] is KKA^y mice. Kind of data set: Blood glucose and blood lipid (triglyceride) lowering action in mice. Format: in vivo. Conditions: Mus musculus, po, 96 h, 4 days, non-administration group = 100%; for inhibition in vivo at 0.005 %: 0.005% in powder diet; for inhibition in vivo at 0.01 %: 0.01% in powder diet (compound of Example 105). The source says: The test compound was mixed with a powder diet (CE-2, CLEA JAPAN, INC.) at a proportion of 0.005% (0.01% for the compound of Example 105) and freely given to KKA^y mice (9 to 12-week-old, 5 mice per group) which are obesity-insulin independent diabetes mellitus (type-2 diabetes) models, for 4 days. During this period, water was freely given. The blood was drawn from the orbital venous plexus. Glucose and triglyceride in the plasma separated from the blood were quantitated using L Type Wako Glu2 (Wako Pure Chemical Industries, Ltd.) and L Type Wako TG•H (Wako Pure Chemical Industries, Ltd.), respectively, according to an enzyme method.

Data set [3] concerns the target T1, PPARγ-RXRα heterodimer (Homo sapiens, UniProt P37231).
T1 construct: expressed in transfected cells; host or cells: CHO-K1
T1 sequence (P37231 1-505): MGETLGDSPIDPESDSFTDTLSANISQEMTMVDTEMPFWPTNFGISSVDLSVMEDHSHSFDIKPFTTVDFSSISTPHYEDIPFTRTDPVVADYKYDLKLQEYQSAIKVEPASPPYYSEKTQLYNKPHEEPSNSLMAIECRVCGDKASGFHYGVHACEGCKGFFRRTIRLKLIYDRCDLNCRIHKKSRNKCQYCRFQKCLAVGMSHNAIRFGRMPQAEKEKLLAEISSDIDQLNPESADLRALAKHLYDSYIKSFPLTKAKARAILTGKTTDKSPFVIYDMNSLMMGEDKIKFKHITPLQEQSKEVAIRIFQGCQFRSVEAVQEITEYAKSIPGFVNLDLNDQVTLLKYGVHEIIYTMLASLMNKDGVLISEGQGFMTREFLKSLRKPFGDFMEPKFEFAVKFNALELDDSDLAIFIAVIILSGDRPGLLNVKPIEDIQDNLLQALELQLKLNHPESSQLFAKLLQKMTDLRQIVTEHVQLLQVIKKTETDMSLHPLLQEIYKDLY
T1 sequence (P19793 1-462 partner): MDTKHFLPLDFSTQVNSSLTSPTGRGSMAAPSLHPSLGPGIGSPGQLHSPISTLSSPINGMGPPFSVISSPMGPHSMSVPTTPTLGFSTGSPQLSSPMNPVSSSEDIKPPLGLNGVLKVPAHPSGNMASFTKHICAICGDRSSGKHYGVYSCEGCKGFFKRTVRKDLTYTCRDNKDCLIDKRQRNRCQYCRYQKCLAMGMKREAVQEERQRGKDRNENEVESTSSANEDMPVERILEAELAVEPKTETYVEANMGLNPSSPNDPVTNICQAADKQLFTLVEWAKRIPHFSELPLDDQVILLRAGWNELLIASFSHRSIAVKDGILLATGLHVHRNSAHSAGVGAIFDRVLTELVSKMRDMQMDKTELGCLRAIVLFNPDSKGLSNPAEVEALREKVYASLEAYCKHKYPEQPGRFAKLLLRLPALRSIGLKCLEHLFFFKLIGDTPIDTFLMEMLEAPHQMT
Kind of data set: PPARγ-RXRα heterodimer ligand activity (luciferase reporter). The data set is classed as cell-based. As to conditions: PPARγ:RXRα:4ERPP/CHO-K1 cells, 18-24 hr, concentration showing 50% of the maximum induction rate. Put shortly: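 CHO-K1 cells carrying PPARγ, RXRα and a 4ERPP luciferase reporter, exposed to compound 18–24 h at 37 °C in Ham F12 with 0.1% fatty acid-free BSA. Luciferase induction expressed relative to untreated cells (= 1). EC50 is concentration giving 50% of maximal induction.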

The target of data set [4] is T2, PPARδ-RXRα heterodimer (Homo sapiens, UniProt Q03181).
T2 construct: expressed in transfected cells
T2 sequence (Q03181 1-441): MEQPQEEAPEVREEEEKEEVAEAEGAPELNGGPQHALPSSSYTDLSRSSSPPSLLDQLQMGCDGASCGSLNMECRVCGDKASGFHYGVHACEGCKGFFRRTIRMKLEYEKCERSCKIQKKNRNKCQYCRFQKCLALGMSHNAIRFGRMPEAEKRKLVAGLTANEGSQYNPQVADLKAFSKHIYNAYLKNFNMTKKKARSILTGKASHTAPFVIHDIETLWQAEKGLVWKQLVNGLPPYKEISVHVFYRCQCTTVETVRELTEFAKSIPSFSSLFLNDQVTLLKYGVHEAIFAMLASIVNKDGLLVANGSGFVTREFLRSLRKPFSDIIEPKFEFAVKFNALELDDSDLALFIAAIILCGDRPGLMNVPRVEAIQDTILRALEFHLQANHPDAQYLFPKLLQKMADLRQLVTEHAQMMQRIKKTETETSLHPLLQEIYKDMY
T2 sequence (P19793 1-462 partner): T1 sequence (P19793 1-462 partner)
The experiment in a line: PPARδ-RXRα heterodimer ligand activity (luciferase reporter). Conditions: transformant of Reference Example 9a of WO03/099793, 36-48 hr, concentration showing 50% of the maximum induction rate. The data set is classed as cell-based. On the procedure:
The transformant described in Reference Example 9a of WO03/099793 was suspended in a DMEM medium [manufactured by Life technologies, Inc., US] containing 0.1% fatty acid-free bovine serum albumin (BSA) (manufactured by Wako Pure Chemical Industries, Ltd.), and inoculated to each well of a 96 well white plate [manufactured by Corning Coster Corporation, US] by 80 μl to 1×10^4 cells/well. Then, the test compound (20 μl) was added, and cultured under the conditions of 37° C., 5% CO2 for 36-48 hr. The medium was removed from the 96 well white plate, 40 μl of PicaGene LT 7.5 (manufactured by Wako Pure Chemical Industries, Ltd.) diluted 2-fold with HBSS (HANKS' BALANCED SALT SOLUTION) [manufactured by BIO WHITTAKER, US] was added and, after stirring, the luciferase activity was determined using the 1420 ARVO Multilabel Counter [manufactured by PerkinElmer, US].
The induction rate was calculated from the luciferase activity of each test compound based on the luciferase activity of the test compound non-administration group as 1. The test compound concentration and the induction rate were analyzed by PRISM [manufactured by GraphPad Software, Inc., US] to calculate EC50 value (compound concentration showing 50% of the maximum value of induction rate) of the test compound.

Setting [5] is: lowering rate of plasma glucose, read-out: hypoglycemic action (%).
Where [6] appears, read: lowering rate of plasma triglyceride, read-out: hypolipidemic action (%).

Structures are written as SMILES. Like-named read-outs stand apart in the source and are kept apart here.

In turn, `COc1cccc(CC(=O)O)c1OCCCc1ccc(OC(C)C)cc1Oc1ccc(C(F)(F)F)cn1` [Example 107, {2-[3-(4-isopropoxy-2-{[5-(trifluoromethyl)pyridin-2-yl]oxy}phenyl)propoxy]-3-methoxyphenyl}acetic acid] showed a change in vivo at 0.005 % in data set [1] of 13%.
Take `CCCOc1cc(CCCOc2c(CC(=O)O)cccc2OC)n(Cc2ccccc2)n1` [Example 56, {2-[3-(1-benzyl-3-propoxy-1H-pyrazol-5-yl)propoxy]-3-methoxyphenyl}acetic acid]: the change in vivo at 0.005 % in data set [1] was 12%.
For the molecule `CCn1cc(CC(=O)O)c(OCCCc2cc(OC(C)C)nn2Cc2ccc(Cl)cc2Cl)n1` [Example 22, (3-{3-[1-(2,4-dichlorobenzyl)-3-isopropoxy-1H-pyrazol-5-yl]propoxy}-1-ethyl-1H-pyrazol-4-yl)acetic acid], the inhibition in vivo at 0.005 % in data set [2] (setting [5]) worked out at 49%; in data set [2] (setting [6]), 53%. In data set [1], the change in vivo at 0.005 % was found to be 12%. Also, in data set [3], the EC50 is 15 nM.
On to `COCOc1ccc(CCCOc2c(CC(=O)O)cccc2OC)c(Oc2ccc(C(F)(F)F)cn2)c1` [Example 105, {3-methoxy-2-[3-(4-(methoxymethoxy)-2-{[5-(trifluoromethyl)pyridin-2-yl]oxy}phenyl)propoxy]phenyl}acetic acid], for which the inhibition in vivo at 0.01 % in data set [2] (setting [5]) and in data set [2] (setting [6]) was 64% throughout. The change in vivo at 0.01 % in data set [1] (0.01% in powder diet (compound of Example 105)) worked out at 13%.
Take `COc1ccccc1Cn1nc(OC(C)C)cc1CCCOc1c(CC(=O)O)cccc1OC` [Example 62, (2-{3-[3-isopropoxy-1-(2-methoxybenzyl)-1H-pyrazol-5-yl]propoxy}-3-methoxyphenyl)acetic acid]: the results for the inhibition in vivo at 0.005 % in data set [2] (setting [5]) and in data set [2] (setting [6]) were 48% and 61%, respectively. Also, in data set [1], the change in vivo at 0.005 % is 13%. For the same molecule, it took 34 nM to reach a half-maximal effect in data set [3] (EC50).
Molecule `CCn1cc(CC(=O)O)c(OCCCc2ccc(OC(C)C)cc2Oc2ccc(C(F)(F)F)cn2)n1` [Example 108, {1-ethyl-3-[3-(4-isopropoxy-2-{[5-(trifluoromethyl)pyridin-2-yl]oxy}phenyl)propoxy]-1H-pyrazol-4-yl}acetic acid] returned a change in vivo at 0.005 % in data set [1] of 12%.
Regarding `CCCOc1cc(CCCOc2c(CC(=O)O)cccc2OC)n(Cc2ccc(Cl)cc2Cl)n1` [Example 57, (2-{3-[1-(2,4-dichlorobenzyl)-3-propoxy-1H-pyrazol-5-yl]propoxy}-3-methoxyphenyl)acetic acid], the change in vivo at 0.005 % in data set [1] turned out to be 15%. Besides, the EC50 amounted to 1.4 nM in data set [3] and 21 nM in data set [4].
Regarding `COc1cccc(CC(=O)O)c1OCCCc1cc(OC(C)C)nn1Cc1ccc(Cl)cc1Cl` [Example 16, (2-{3-[1-(2,4-dichlorobenzyl)-3-isopropoxy-1H-pyrazol-5-yl]propoxy}-3-methoxyphenyl)acetic acid], the inhibition in vivo at 0.005 % in data set [2] (setting [5]) stood at 57%; in data set [2] (setting [6]), 28%. This molecule also displayed a change in vivo at 0.005 % in data set [1] of 13%. For the same molecule, the EC50 in data set [3] was 2.3 nM; in data set [4] it was 14 nM.
Turning to `COCOc1ccc(CCCOc2nn(C)cc2CC(=O)O)c(Oc2ncc(C(F)(F)F)cc2Cl)c1` [Example 111, (3-{3-[2-{[3-chloro-5-(trifluoromethyl)pyridin-2-yl]oxy}-4-(methoxymethoxy)phenyl]propoxy}-1-methyl-1H-pyrazol-4-yl)acetic acid], the melting point fell in the range of 122 to 123 °C. In data set [2] (setting [5]), the inhibition in vivo at 0.005 % was determined as 64%. In addition, the inhibition in vivo at 0.005 % in data set [2] (setting [6]) is 45%. In data set [1], this molecule showed a change in vivo at 0.005 % of 11%. In addition, in data set [3], the concentration for a half-maximal effect (EC50) was 3.8 nM. The EC50 in data set [4] was determined as 77 nM.
The molecule `COc1cccc(CC(=O)O)c1OCCCc1cc(OC(C)C)nn1Cc1ccc(C(F)(F)F)cc1` [Example 51, [2-(3-{3-isopropoxy-1-[4-(trifluoromethyl)benzyl]-1H-pyrazol-5-yl}propoxy)-3-methoxyphenyl]acetic acid] registered a melting point of 116 to 117 °C. In data set [1], this molecule showed a change in vivo at 0.005 % of 15%. This molecule also came in with an EC50 in data set [3] of 39 nM.
